This assay has as its target glucose oxidase (GOx) (Aspergillus niger, UniProt P13006). As to the kind of experiment: HRP-coupled chromogenic assay of H2O2. The assay is classed as biochemical. As to conditions: free enzyme; O2 co-substrate.

We go through 1 molecule from PMC5883864 (Chemical Science, 2017).

Sequence of glucose oxidase (GOx) (P13006 17-605): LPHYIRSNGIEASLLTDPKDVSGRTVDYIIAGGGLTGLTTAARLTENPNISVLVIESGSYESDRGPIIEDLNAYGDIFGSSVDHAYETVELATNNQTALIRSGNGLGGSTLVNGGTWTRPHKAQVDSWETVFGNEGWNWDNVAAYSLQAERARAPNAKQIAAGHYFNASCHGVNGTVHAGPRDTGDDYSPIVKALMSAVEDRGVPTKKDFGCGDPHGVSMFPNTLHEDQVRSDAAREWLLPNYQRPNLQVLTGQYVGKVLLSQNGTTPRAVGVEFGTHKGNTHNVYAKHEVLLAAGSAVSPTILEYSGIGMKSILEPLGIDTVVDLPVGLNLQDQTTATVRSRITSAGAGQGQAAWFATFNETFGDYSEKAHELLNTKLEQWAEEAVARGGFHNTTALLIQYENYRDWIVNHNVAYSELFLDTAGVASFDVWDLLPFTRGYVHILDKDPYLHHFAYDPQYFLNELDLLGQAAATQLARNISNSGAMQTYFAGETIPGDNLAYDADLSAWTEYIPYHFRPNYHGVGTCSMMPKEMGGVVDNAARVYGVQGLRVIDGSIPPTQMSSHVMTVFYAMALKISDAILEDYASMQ

For the molecule `OC[C@H]1OC(O)[C@H](O)[C@@H](O)[C@@H]1O` (stereo partly shown) [glucose], the KM entry is “glucose diffuses in and one of the products, namely hydrogen peroxide, must diffuse out”.
